Data taken from US7754727B2, “4-phenylpiperidine derivatives as renin inhibitors” (Novartis AG, priority 2003, dated 2010).
pIC50: −log10 of the molar value. Structures can show the parent of a compound that is named as a salt.

Biological target: T1, Recombinant human renin (Homo sapiens, UniProt P00797)
T1 construct: made in house; host or cells: Chinese Hamster Ovary cells
T1 sequence (P00797 67-406): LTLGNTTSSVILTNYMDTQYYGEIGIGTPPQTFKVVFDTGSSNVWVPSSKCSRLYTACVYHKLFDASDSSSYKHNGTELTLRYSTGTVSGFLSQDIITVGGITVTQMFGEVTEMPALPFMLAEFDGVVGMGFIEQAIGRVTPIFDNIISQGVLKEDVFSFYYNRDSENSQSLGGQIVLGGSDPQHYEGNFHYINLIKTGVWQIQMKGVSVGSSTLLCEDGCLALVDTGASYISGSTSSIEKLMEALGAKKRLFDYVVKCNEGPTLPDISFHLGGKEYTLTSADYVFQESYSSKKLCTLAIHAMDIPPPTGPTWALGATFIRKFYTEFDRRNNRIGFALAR
Experiment: FRET assay of inhibition of renin activity
Type: biochemical
Conditions: recombinant human renin 4 nM, 1 h at RT, pH 7.4
Description: Recombinant human renin (expressed in Chinese Hamster Ovary cells and purified using standard methods) at 4 nM concentration is incubated with test compound at various concentrations for 1 h at RT in 0.1 M Tris-HCl buffer, pH 7.4, containing 0.05 M NaCl, 0.5 mM EDTA and 0.05% CHAPS. Synthetic peptide substrate Arg-Glu(EDANS)-Ile-His-Pro-Phe-His-Leu-Val-Ile_His_Thr-Lys(DABCYL)-Arg9 is added to a final concentration of 2 μM and increase in fluorescence is recorded at an excitation wave-length of 340 nm and at an emission wave-length of 485 nm in a microplate spectro-fluorimeter. IC50 values are calculated from percentage of inhibition of renin activity as a function of test compound concentration (Fluorescence Resonance Energy Transfer, FRET, assay).

pIC50: ~7.15
Structure (SMILES): c1ccc(-c2cccc([C@H]3CCNC[C@@H]3OCc3ccc4ccccc4c3)c2)cc1 (relative stereo) [Example 1, (3R*,4R*)-4-Biphenyl-3-yl-3-(naphthalen-2-ylmethoxy)-piperidine hydrochloride]
